US12171230B2, “Herbicidal compositions” (Bayer Aktiengesellschaft, priority 2018, dated 2024)

How the values were obtained:
Format in all cases: in vivo
Pharbitis purpurea = test: Post-emergence herbicidal action against Pharbitis purpurea; conditions: post-emergence; 21 DAT; 5 g of a.i./ha
Procedure: (§1) When the observed efficacies exceed the formal sum total of the values of the tests with individual applications, they also exceed the expected value according to Colby, which is calculated using the formula below and is likewise regarded as an indication of synergism (cf. S. R. Colby; in Weeds 15 (1967) p. 20 to 22): E^C=A+B−([…])
(§2) Here: • A=efficacy of the active compound (A) in % at an application rate of a g a.i./ha; • B=efficacy of the active compound (B) in % at an application rate of b g a.i./ha; • E^C=expected value of the effect of the combination (A)+(B) in % at the combined application rate a+b g a.i./ha.
(§3) Seeds or rhizome pieces of mono- and dicotyledonous weeds are placed in sandy loam in pots, covered with soil and grown in a greenhouse under good growth conditions (temperature, air humidity, water supply). Three weeks after sowing, the test plants were treated at the three-leaf stage with the compositions according to the invention. The compositions according to the invention formulated as spray powders or as emulsion concentrates were sprayed onto the green plant parts in various dosages with an application rate of 300 to 800 l/ha of water (equivalent). After the test plants have been left to stand in the greenhouse under optimal growth conditions for about 3 to 4 weeks, the action of the preparations is scored visually in comparison to untreated controls. The compositions according to the invention also have good post-emergence herbicidal activity against a broad spectrum of economically important gramineous and broadleaf weeds.

Amaranthus palmeri = test: Post-emergence herbicidal action against Amaranthus palmeri; conditions: Amaranthus palmeri, post-emergence, 504 h, read-out: Herbicidal action 21 DAT [%] against Amaranthus palmeri
Procedure: as §1, §2, §3

Abutilon theophrasti = test: Post-emergence herbicidal action against Abutilon theophrasti
Excerpt: (§4) The following abbreviations are used in the description and the tables that follow: • g of a.i./ha=grams of active substance (active ingredient) (=100% active compound) per hectare; • The sum total of the effects of the individual applications is reported under E^A; • expected values according to Colby are each reported under E^C.
(§5) The rating period is reported in days after application (DAT).

Bidens pilosa = test: Post-emergence herbicidal action against Bidens pilosa; conditions: post-emergence, 21 DAT
Procedure: as §1, §2, §3

Poa annua = test: Post-emergence herbicidal action against Poa annua; conditions: 1 g of a.i./ha
Procedure: as §1, §2, §3

Matricaria inodora = test: Post-emergence herbicidal action against Matricaria inodora; conditions: 1 g of a.i./ha
Phalaris minor = test: Post-emergence herbicidal action against Phalaris minor
Excerpt: as §4, §5

Viola tricolor = test: Post-emergence herbicidal action against Viola tricolor
Excerpt: as §4, §5

Bromus sterilis = test: Post-emergence herbicidal action against Bromus sterilis
Excerpt: as §4, §5

Alopecurus myosuroides = test: Post-emergence herbicidal action against Alopecurus myosuroides
Excerpt: as §4, §5

[1] = system: Lolium rigidum (resistant biotype); test: Post-emergence herbicidal action against Lolium rigidum (resistant biotype)
Excerpt: as §4, §5

Galium aparine = test: Post-emergence herbicidal action against Galium aparine
Procedure: as §1, §2, §3

Veronica hederifolia = test: Post-emergence herbicidal action against Veronica hederifolia; conditions: 1 g of a.i./ha
Excerpt: as §4, §5

Lolium rigidum = test: Post-emergence herbicidal action against Lolium rigidum
Excerpt: as §4, §5

Compound: C[n+]1ccc(-c2cc[n+](C)cc2)cc1 [(B5.37) Paraquat]
- Herbicidal action 21 DAT [%] against Pharbitis purpurea (Pharbitis purpurea): 15%
- pest or weed control at 5 g/ha (Amaranthus palmeri): 0%
- pest or weed control at 45 g/ha (Amaranthus palmeri): 10%
- Herbicidal action 21 DAT [%] against Abutilon theophrasti (Abutilon theophrasti; 5 g of a.i./ha): 0%
- Herbicidal action 21 DAT [%] against Abutilon theophrasti (Abutilon theophrasti; 45 g of a.i./ha): 10%
- Herbicidal action 21 DAT [%] against Bidens pilosa (Bidens pilosa; 5 g of a.i./ha): 0%
- Herbicidal action 21 DAT [%] against Bidens pilosa (Bidens pilosa; 45 g of a.i./ha): 10%

Compound: COc1cc(OC)nc(NC(=O)NS(=O)(=O)c2cc(NC=O)ccc2C(=O)N(C)C)n1 [(B2.31) Foramsulfuron]
- Herbicidal action 28 DAT against Poa annua L. (Poa annua): 40%
- Herbicidal action 14 DAT against Matricaria inodora (Matricaria inodora): 70%
- Herbicidal action 28 DAT against Matricaria inodora (Matricaria inodora): 30%
- Herbicidal action 14 DAT against Phalaris minor (Phalaris minor; 3 g of a.i./ha): 85%
- Herbicidal action 28 DAT against Phalaris minor (Phalaris minor; 3 g of a.i./ha): 40%
- Herbicidal action 14 DAT against Phalaris minor (Phalaris minor; 9 g of a.i./ha): 80%
- Herbicidal action 28 DAT against Phalaris minor (Phalaris minor; 9 g of a.i./ha): 20%
- Herbicidal action 28 DAT against Viola tricolor (Viola tricolor; 1 g of a.i./ha): 65%
- Herbicidal action 28 DAT against Viola tricolor (Viola tricolor; 3 g of a.i./ha): 80%
- Herbicidal action 14 DAT against Bromus sterilis (Bromus sterilis; 1 g of a.i./ha): 65%
- Herbicidal action 14 DAT against Bromus sterilis (Bromus sterilis; 3 g of a.i./ha): 85%
- Herbicidal action 28 DAT against Bromus sterilis (Bromus sterilis; 3 g of a.i./ha): 25%
- Herbicidal action 14 DAT against Bromus sterilis (Bromus sterilis; 9 g of a.i./ha): 85%
- Herbicidal action 28 DAT against Bromus sterilis (Bromus sterilis; 9 g of a.i./ha): 60%
- Herbicidal action 14 DAT against Alopecurus myosuroides (Alopecurus myosuroides; 1 g of a.i./ha): 80%
- Herbicidal action 28 DAT against Alopecurus myosuroides (Alopecurus myosuroides; 1 g of a.i./ha): 40%
- Herbicidal action 28 DAT against Alopecurus myosuroides (Alopecurus myosuroides; 3 g of a.i./ha): 80%
- Herbicidal action 28 DAT against Alopecurus myosuroides (Alopecurus myosuroides; 9 g of a.i./ha): 85%
- Herbicidal action 14 DAT against Lolium rigidum (resistant biotype) ([1]; 3 g of a.i./ha): 15%
- Herbicidal action 28 DAT against Lolium rigidum (resistant biotype) ([1]; 3 g of a.i./ha): 10%
- Herbicidal action 14 DAT against Lolium rigidum (resistant biotype) ([1]; 9 g of a.i./ha): 15%
- Herbicidal action 28 DAT against Lolium rigidum (resistant biotype) ([1]; 9 g of a.i./ha): 20%
- Herbicidal action 28 DAT against Galium aparine (Galium aparine; 1 g of a.i./ha): 0%
- Herbicidal action 28 DAT against Galium aparine (Galium aparine; 9 g of a.i./ha): 65%
- Herbicidal action 14 DAT against Veronica hederifolia (Veronica hederifolia): 80%
- Herbicidal action 28 DAT against Lolium rigidum (Lolium rigidum; 3 g of a.i./ha): 35%
- Herbicidal action 28 DAT against Lolium rigidum (Lolium rigidum; 9 g of a.i./ha): 65%
